This data set relates to CCRIS mutagenicity, Ames/micronucleus/aberration tests. As to the kind of experiment: CCRIS mutagenicity studies.
Setting [1] is: Test System: AMES SALMONELLA TYPHIMURIUM, Strain/Indicator: TA98, Metabolic Activation: NONE, Method: STANDARD PLATE.
Where [2] appears, read: Test System: AMES SALMONELLA TYPHIMURIUM, Strain/Indicator: TA98, Metabolic Activation: RAT, LIVER, S-9, AROCLOR 1254, Method: STANDARD PLATE.
Where [3] appears, read: Test System: AMES SALMONELLA TYPHIMURIUM, Strain/Indicator: TA100, Metabolic Activation: NONE, Method: STANDARD PLATE.
[4] abbreviates: Test System: AMES SALMONELLA TYPHIMURIUM, Strain/Indicator: TA100, Metabolic Activation: RAT, LIVER, S-9, AROCLOR 1254, Method: STANDARD PLATE.
[5] abbreviates: Test System: AMES SALMONELLA TYPHIMURIUM, Strain/Indicator: TA1535, Metabolic Activation: NONE, Method: STANDARD PLATE.

Calls of active or inactive are those of the source. No rule for the calls is given here.

Regarding `COC1=CC(=O)C(=O)C(C(C)(C)C)=C1`, the mutagenic call was “inactive; negative” under setting [1], “inactive; negative” under setting [2], “inactive; negative” under setting [3] and “inactive; negative” under setting [4].

For `Cc1c2ccccc2c(C)c2ccccc12`, the mutagenic call under setting [1] is “active; positive”, the mutagenic call under setting [2] was “active; positive”, the mutagenic call under setting [3] is “inactive; negative” and the mutagenic call under setting [4] is “active; positive”.

For `N=NCCCO`, the mutagenic call under setting [5] was “active; positive”; the mutagenic call (Test System: E. COLI, Strain/Indicator: WP2, Metabolic Activation: NONE, Method: STANDARD PLATE) is “active; positive”; the mutagenic call (Test System: E. COLI, Strain/Indicator: WP2 UVRA, Metabolic Activation: NONE, Method: STANDARD PLATE) is “active; positive”.

With `COc1cc(C[C@@H]2NCCc3cc(O)c(O)cc32)cc(OC)c1OC`, the mutagenic call was “inactive; negative” under setting [1]; “inactive; negative” under setting [2]; “inactive; negative” under setting [3]; “inactive; negative” under setting [4]; “inactive; negative” under setting [5]; “inactive; negative” (Test System: AMES SALMONELLA TYPHIMURIUM, Strain/Indicator: TA1535, Metabolic Activation: RAT, LIVER, S-9, AROCLOR 1254, Method: STANDARD PLATE). Besides, the mutagenic call reads like this: (Test System: AMES SALMONELLA TYPHIMURIUM, Strain/Indicator: TA1537, Metabolic Activation: NONE, Method: STANDARD PLATE) “inactive; negative”; (Test System: AMES SALMONELLA TYPHIMURIUM, Strain/Indicator: TA1537, Metabolic Activation: RAT, LIVER, S-9, AROCLOR 1254, Method: STANDARD PLATE) “inactive; negative”.

`Cn1c(N)nc2ccc(C#N)cc21`: under “Test System: AMES SALMONELLA TYPHIMURIUM, Strain/Indicator: TA98, Metabolic Activation: RAT, LIVER, S-9, AROCLOR 1254, Method: PREINCUBATION”, the mutagenic call is “active; positive”.

The values above are taken from PubChem BioAssay AID1259407 (Chemical Carcinogenesis Research Information System (CCRIS), 2018).
